The IC50 is the concentration needed to halve the response being measured. A word on the EC50: it is the concentration at which the effect is half-maximal. The low end stands for greater potency, the high end for weaker potency.

The source of these data is patent publication US5463071A, “5-membered heterocyclic compounds, processes for preparing them and pharmaceutical compositions containing these compounds” (Dr. Karl Thomae GmbH, priority 1991, dated 1995).

Series [1] can be described thus: Tolerance after intravenous administration to mice. It is filed as in vivo. To be noted: 30 mg/kg intravenous, three mice each.
A further series deals with human thrombocytes. The experiment in a line: Fibrinogen binding to human thrombocytes (125I fibrinogen, gel-filtered platelets). Conditions: ADP, 20 minutes at ambient temperature, read-out: Fibrinogen-binding test IC50. The method, then:
1. Fibrinogen binding to human thrombocytes The blood obtained by puncturing an antecubital vein is anticoagulated with trisodium citrate (final concentration: 13 mM) and centrifuged for 10 minutes at 170×g. The supernatant platelet-rich plasma is poured onto a Sepharose 2B column (Pharmacia) and eluted with a solution of 90 mM common salt, 14 mM trisodium citrate, 5 mM glucose and 50 mM Tris(hydroxymethyl)aminomethane, adjusted to pH 7.4. The gel-filtered platelets (GFP) appearing before the plasma proteins are used for the binding experiments. 50 μl of a 60 mM calcium chloride solution, 50 μl of a 0.6 mM adenosine diphosphate solution, 100 μl of substance solution or solvent and 50 μl of fibrinogen solution (containing 3 μg of ^125 I fibrinogen) are added to 750 μl of GFP and incubated for 20 minutes at ambient temperature. The non-specific binding is determined in the presence of 3 mg/ml of cold fibrinogen. 900 μof the incubated material are carefully pipetted onto 250 μof silicon oil (AP 38: AR 20, 1:2 v/v, Wacker Chemie) in Eppendorf tubes and centrifuged for 2 minutes at 10,000×g. The aqueous supernatant and part of the oil are drawn off, the tips of the tubes are cut off together with the platelet pellet and the quantity of bound fibrinogen is determined in a gamma counter. The concentration of substance which brings about a 50% inhibition in fibrinogen binding is determined from a series of concentrations and is given as the IC50 value.

The subject of series [2] is collagen-induced platelet aggregation in platelet-rich plasma. Briefly: Antithrombotic activity: inhibition of collagen-induced thrombocyte (platelet) aggregation, Born and Cross method. It is filed as cell-based, healthy volunteers (human). Conditions: Homo sapiens, 10 minutes preincubation at 37° C. The method, then: 2. Antithrombotic activity Method The thrombocyte aggregation is measured using the Born and Cross method (J. Physiol. 170: 397 (1964)) in platelet-rich plasma taken from healthy volunteers. To inhibit coagulation the blood is mixed with 3.14% sodium citrate in a ratio by volume of 1:10. Collagen-induced aggregation The pattern of the decrease in optical density of the platelet suspension is photometrically measured and recorded after the addition of the aggregation-triggering substance. The rate of aggregation is concluded from the angle of inclination of the density curve. The point on the curve where there is maximum light transmittance is used to calculate the optical density. The amount of collagen used is as small as possible but sufficient to produce an irreversible reaction curve. Standard commercial collagen produced by Hormonchemie of Munich is used. Before the addition of the collagen the plasma is incubated for 10 minutes with the substance at 37° C. From the measurements obtained an EC50 is determined graphically, indicating a 50% change in the optical density in terms of the inhibition of aggregation.

As to `N=C(N)c1ccc(-c2ccc(-n3cnc(CCC(=O)O)c3)nn2)cc1` [Example 1], the “deaths after intravenous administration” value in series [1] was “no animals died”. Further, the concentration for half-maximal inhibition (IC50) in the series with human thrombocytes amounted to 0.073 µM. In series [2], this molecule gave an EC50 of 0.13 µM.

Consider `Cl.N=C(N)c1ccc(-c2ccc(-n3cnc(CC(N)C(=O)O)c3)nn2)cc1` (stereo not drawn) [1(2), 1-[6-(4-amidino-phenyl)-3-pyridazinyl]-4-(2-amino-2-carboxy-ethyl)-imidazole-hydrochloride], for which the “deaths after intravenous administration” value in series [1] was “no animals died”. The IC50 in the series on human thrombocytes amounted to 0.018 µM. The EC50 in series [2] worked out at 0.09 µM.
